Measured values taken from US20070128217A1 (priority 2003, published 2007).

Legend:
[1] = test system: antibodies in sera from SARS patients (sera 1a, 1b, 2, 6, 37, 62, London, SARS-yellow, SARS-green); assay type: binding, human; parameters: Binding of serum 6 to linear peptides of protein X1 of SARS-CoV Urbani / Binding of serum 37 to linear peptides of protein X1 of SARS-CoV Urbani / Binding of serum 6 to looped/cyclic peptide (PEPSCAN-ELISA) / Binding of serum 37 to looped/cyclic peptide (PEPSCAN-ELISA) / Binding of serum 37 to looped/cyclic peptides of protein X1 of SARS-CoV Urbani / Binding of serum 6 to linear peptides of protein X2 / Binding of serum 37 to linear peptides of protein X2 / Binding of serum 37 to looped/cyclic peptides of protein X2 of SARS-CoV Urbani / Binding of serum 6 to linear peptides of protein M of SARS-CoV Urbani / Binding of serum 37 to linear peptides of protein M of SARS-CoV Urbani / Binding of serum 6 to looped/cyclic peptides of protein M of SARS-CoV Urbani / Binding of serum 37 to looped/cyclic peptides of protein M of SARS-CoV Urbani / Binding of serum 6 to linear peptides of protein X3 of SARS-CoV Urbani / Binding of serum 37 to linear peptides of protein X3 of SARS-CoV Urbani / Binding of serum 37 to looped/cyclic peptides of protein X3 of SARS-CoV Urbani / Binding of serum 6 to linear peptides of protein X4 of SARS-CoV Urbani / Binding of serum 37 to linear peptides of protein X4 of SARS-CoV Urbani / Binding of serum 37 to looped/cyclic peptides of protein X4 of SARS-CoV Urbani / Binding of serum 6 to linear peptides of protein X5 of SARS-CoV Urbani / Binding of serum 37 to linear peptides of protein X5 of SARS-CoV Urbani / Binding of serum 37 to looped/cyclic peptides of protein X5 of SARS-CoV Urbani / Binding of serum 6 to linear peptides of protein N of SARS-CoV Urbani / Binding of serum 37 to linear peptides of protein N of SARS-CoV Urbani / Binding of serum 6 to linear peptide (PEPSCAN-ELISA) / Binding of serum 1a to looped/cyclic peptides of protein N of SARS-CoV Urbani / Binding of serum 1b to looped/cyclic peptides of protein N of SARS-CoV Urbani / Binding of serum 2 to looped/cyclic peptides of protein N of SARS-CoV Urbani / Binding of serum 6 to looped/cyclic peptides of protein N of SARS-CoV Urbani / Binding of serum 37 to looped/cyclic peptides of protein N of SARS-CoV Urbani / Binding of serum 62 to looped/cyclic peptides of protein N of SARS-CoV Urbani / Binding of serum London to looped/cyclic peptides of protein N of SARS-CoV Urbani / Binding of serum SARS-green to looped/cyclic peptides of protein N of SARS-CoV Urbani: unit not given here
[2] = test system: control sera (pooled serum of ten healthy LUMC hospital workers; commercial negative donor pooled serum from the Dutch bloodbank); assay type: binding, human; parameters: Binding of Control serum LUMC to linear peptides / Binding of Control serum Blood-bank to linear peptides / Binding of Control serum LUMC to looped peptides / Binding of Control Serum Blood-Bank to Looped peptides / Binding of Control serum LUMC to linear peptides of the protein M of SARS-CoV Urbani / Binding of Control serum Blood-bank to linear peptides of the protein M of SARS-CoV Urbani / Binding of Control serum LUMC to looped peptides of the protein M of SARS-CoV Urbani / Binding of Control Serum Blood-Bank to Looped peptides of the protein M of SARS-CoV Urbani: unit not given here
[3] = test system: rabbit serum obtained by immunizing a rabbit with the SARS-CoV strain Frankfurt 1; assay type: binding; parameters: Binding of a rabbit serum to linear peptides / Binding of a rabbit serum to looped peptides / Rabbit serum linear peptides / Rabbit serum looped peptides / Binding of a rabbit serum to linear peptides of protein N of SARS-CoV Urbani (Rabbit serum linear peptides) / Binding of a rabbit serum to looped/cyclic peptides of protein N of SARS-CoV Urbani (Rabbit serum looped peptides): unit not given here

## VHGYFTEVYYQLEST
[1]
  Binding of serum 1a to linear peptides of protein X1 of SARS-CoV Urbani: 0.7
  Binding of serum 1a to looped/cyclic peptides of protein X1 of SARS-CoV Urbani: 0.5
  Binding of serum 1b to linear peptides of protein X1 of SARS-CoV Urbani: 0.5
  Binding of serum 1b to looped/cyclic peptides of protein X1 of SARS-CoV Urbani: 0.4
  Binding of serum 2 to linear peptides of protein X1 of SARS-CoV Urbani: 0.4
  Binding of serum 2 to looped/cyclic peptides of protein X1 of SARS-CoV Urbani: 0.5
  Binding of serum 6 to linear peptides of protein X1 of SARS-CoV Urbani: 0.4
  Binding of serum 6 to looped/cyclic peptides of protein X1 of SARS-CoV Urbani: 0.3
  Binding of serum 37 to linear peptides of protein X1 of SARS-CoV Urbani: 0.4
  Binding of serum 37 to looped/cyclic peptides of protein X1 of SARS-CoV Urbani: 0.5
  Binding of serum 62 to linear peptides of protein X1 of SARS-CoV Urbani: 0.3
  Binding of serum 62 to looped/cyclic peptides of protein X1 of SARS-CoV Urbani: 0.6
  Binding of serum London to linear peptides of protein X1 of SARS-CoV Urbani: 0.2
  Binding of serum London to looped/cyclic peptides of protein X1 of SARS-CoV Urbani: 0.2
  Binding of serum SARS-green to linear peptides of protein X1 of SARS-CoV Urbani: 0.1
  Binding of serum SARS-green to looped/cyclic peptides of protein X1 of SARS-CoV Urbani: 0.3
  Binding of serum SARS-yellow to linear peptides of protein X1 of SARS-CoV Urbani: 0.3
  Binding of serum SARS-yellow to looped/cyclic peptides of protein X1 of SARS-CoV Urbani: 0.5
[2]
  Binding of Control Serum Blood-Bank to Looped peptides: 0.5
  Binding of Control serum Blood-bank to linear peptides: 0.4
  Binding of Control serum LUMC to linear peptides: 0.5
  Binding of Control serum LUMC to looped peptides: 0.7
[3]
  Binding of a rabbit serum to linear peptides: 0.1
  Binding of a rabbit serum to looped peptides: 0.6

## VILRIGTQVLKTMSL
[1]
  Binding of serum 1a to linear peptides of protein X2: 0.6
  Binding of serum 1a to looped/cyclic peptides of protein X2 of SARS-CoV Urbani: 0.6
  Binding of serum 1b to linear peptides of protein X2: 0.5
  Binding of serum 1b to looped/cyclic peptides of protein X2 of SARS-CoV Urbani: 0.6
  Binding of serum 2 to linear peptides of protein X2: 0.5
  Binding of serum 2 to looped/cyclic peptides of protein X2 of SARS-CoV Urbani: 0.4
  Binding of serum 6 to linear peptides of protein X2: 0.5
  Binding of serum 6 to looped/cyclic peptides of protein X2 of SARS-CoV Urbani: 0.5
  Binding of serum 37 to linear peptides of protein X2: 0.6
  Binding of serum 37 to looped/cyclic peptides of protein X2 of SARS-CoV Urbani: 0.5
  Binding of serum 62 to linear peptides of protein X2: 0.6
  Binding of serum 62 to looped/cyclic peptides of protein X2 of SARS-CoV Urbani: 0.7
  Binding of serum London to linear peptides of protein X2: 0.4
  Binding of serum London to looped/cyclic peptides of protein X2 of SARS-CoV Urbani: 0.2
  Binding of serum SARS-green to linear peptides of protein X2: 0.4
  Binding of serum SARS-green to looped/cyclic peptides of protein X2 of SARS-CoV Urbani: 0.3
  Binding of serum SARS-yellow to linear peptides of protein X2: 0.4
  Binding of serum SARS-yellow to looped/cyclic peptides of protein X2 of SARS-CoV Urbani: 0.4
[2]
  Binding of Control Serum Blood-Bank to Looped peptides: 0.7
  Binding of Control serum Blood-bank to linear peptides: 0.8
  Binding of Control serum LUMC to linear peptides: 0.5
  Binding of Control serum LUMC to looped peptides: 0.7
[3]
  Binding of a rabbit serum to linear peptides: 0.3
  Binding of a rabbit serum to looped peptides: 0.5

## VLLKEPCPSGTYEGN
[1]
  Binding of serum 1a to linear peptides of protein X4 of SARS-CoV Urbani: 0.8
  Binding of serum 1a to looped/cyclic peptides of protein X4 of SARS-CoV Urbani: 0.8
  Binding of serum 1b to linear peptides of protein X4 of SARS-CoV Urbani: 0.7
  Binding of serum 1b to looped/cyclic peptides of protein X4 of SARS-CoV Urbani: 0.7
  Binding of serum 2 to linear peptides of protein X4 of SARS-CoV Urbani: 0.4
  Binding of serum 2 to looped/cyclic peptides of protein X4 of SARS-CoV Urbani: 0.6
  Binding of serum 6 to linear peptides of protein X4 of SARS-CoV Urbani: 0.7
  Binding of serum 6 to looped/cyclic peptides of protein X4 of SARS-CoV Urbani: 0.7
  Binding of serum 37 to linear peptides of protein X4 of SARS-CoV Urbani: 0.7
  Binding of serum 37 to looped/cyclic peptides of protein X4 of SARS-CoV Urbani: 0.8
  Binding of serum 62 to linear peptides of protein X4 of SARS-CoV Urbani: 0.8
  Binding of serum 62 to looped/cyclic peptides of protein X4 of SARS-CoV Urbani: 0.7
  Binding of serum London to linear peptides of protein X4 of SARS-CoV Urbani: 0.8
  Binding of serum London to looped/cyclic peptides of protein X4 of SARS-CoV Urbani: 0.3
  Binding of serum SARS-green to linear peptides of protein X4 of SARS-CoV Urbani: 0.6
  Binding of serum SARS-green to looped/cyclic peptides of protein X4 of SARS-CoV Urbani: 0.5
  Binding of serum SARS-yellow to linear peptides of protein X4 of SARS-CoV Urbani: 0.1
  Binding of serum SARS-yellow to looped/cyclic peptides of protein X4 of SARS-CoV Urbani: 0.4
[2]
  Binding of Control Serum Blood-Bank to Looped peptides: 0.9
  Binding of Control serum Blood-bank to linear peptides: 0.8
  Binding of Control serum LUMC to linear peptides: 0.7
  Binding of Control serum LUMC to looped peptides: 0.8
[3]
  Rabbit serum linear peptides: 0.4
  Rabbit serum looped peptides: 0.3
